Assays:
[1] = target: T1, CDK4/Cyclin D1 (Homo sapiens, UniProt P11802); assay: CDK4/CyclinD1 Enzymatic Activity Assay (TR-FRET); assay type: biochemical; settings: CDK4/CyclinD1 1 nM, ATP 2 mM, read-out: CDK4_D1 IC50
T1 construct: purchased ProQinase; host or cells: insect cell
Procedure: CDK4/CyclinD1 Enzymatic Activity Assay
The inhibitory activity of compounds was evaluated in vitro using TR-FRET assay with white 384-well low volume microplate (Greiner Bio-One). CDK4/Cyclin D1 catalyzed phosphorylation of peptide in the presence and absence of compounds was measured and used in IC50 determination. Recombinant protein complex CDK4/Cyclin D1, expressed from insect cell, was purchased from ProQinase. Testing compounds were dissolved in DMSO at 1 mM and tested in 9-dose IC50 mode. The reaction mixture was prepared by mixing CDK4/CyclinD1 (1 nM final), ULight-4E-BP1 (100 nM final, Perkinelmer, TRF0128-D), and ATP (2 mM final) in assay buffer (20 mM of HEPES pH 7.4, 1 mM of EGTA, 0.05% BSA, 0.005% Tween 20, and 1 mM TCEP). The compound of interest in DMSO was added to each well in 3-fold serial dilution by the dispenser (TECAN D300E) to make a 9.9 μL of reaction mixture. After 20 minutes preincubation at room temperature, 0.1 μL MgCl2 (10 mM final) was added to initiate the reaction. Following a 45 minute incubation at 37° C., the reaction was stopped by addition of 2 μL of quenching buffer consisting of Lance detection buffer (Perkinelmer CR97-100C), LANCE Ultra Europium-anti-P-4E-BP1 (Perkinelmer, TRF0216-D), EDTA, and incubated at room temperature for additional 60 minutes in dark. The reaction signal was measured by Envision multimode plate reader (PerkinElmer, 2102-0010). IC50 values were determined by fitting the data to the standard 4 parameters with Hill Slope using GraphPad Prism software.

[2] = target: CDK2/Cyclin E2 (Homo sapiens, UniProt P24941); assay: CDK2/CyclinE2 Enzymatic Activity Assay (TR-FRET); assay type: biochemical; settings: CDK2/CyclinE2 1 nM, ATP 1 mM, read-out: CDK2_El IC50
Procedure: CDK2/CyclinE2 Enzymatic Activity Assay
The inhibitory activity of compounds was evaluated in vitro using TR-FRET assay with white 384-well low volume microplate (Greiner Bio-One). CDK2/Cyclin E2 catalyzed phosphorylation of peptide in the presence and absence of compounds was measured and used in IC50 determination. Recombinant protein complex CDK2/Cyclin E2, expressed from insect cell, was purchased from ProQinase. Testing compounds were dissolved in DMSO at 1 mM and tested in 9-dose IC50 mode. The reaction mixture was prepared by mixing CDK2/CyclinE2 (1 nM final), ULight-4E-BP1 (50 nM final, Perkinelmer, TRF0128-D), and ATP (1 mM final) in assay buffer (20 mM of HEPES pH 7.4, 1 mM of EGTA, 0.05% BSA, 0.005% Tween 20, and 1 mM TCEP). The compound of interest in DMSO was added to each well in 3-fold serial dilution by dispenser (TECAN D300E) to make a 9.9 μL of reaction mixture. After 20 minutes preincubation at room temperature, 0.1 μL MgCl2 (10 mM final) was added to initiate the reaction. Following a 45 minute incubation at 37° C., the reaction was stopped by addition of 2 μL of quenching buffer consisting of Lance detection buffer (Perkinelmer CR97-100C), LANCE Ultra Europium-anti-P-4E-BP1 (Perkinelmer, TRF0216-D), EDTA, and incubate at room temperature for additional 60 minutes in the dark. The reaction signal was measured by Envision multimode plate reader (PerkinElmer, 2102-0010). IC50 values were determined by fitting the data to the standard 4 parameters with Hill Slope using GraphPad Prism software.

[3] = tested on: pRB in OVCAR3 cells; assay: pRB ICW Assay in OVCAR3 Cells; assay type: cell-based; settings: Homo sapiens, OVCAR-3, incubated with compound for 2 hours, read-out: OVCAR3 p-RB ICW IC50
Procedure: pRB ICW Assay in OVCAR3 Cells
OVCAR3 cells were maintained in RPMI (Corning, Catalog #: 10-040-CV) supplemented with 10% v/v FBS (Gibco, Catalog #: 26140-079), 1% v/v Penicillin Streptomycin (Gibco, Catalog #15140-122.) OVCAR3 cells grown at log phase were trypsinized, counted, and resuspended in fresh medium to reach a final density of 6.7e4 cells/mL and 75 μL of culture were dispensed into a 384-well plate (Falcon, cat #353962) using a Multidrop Combi dispenser (Thermo Scientific). The next day, compounds were dispensed as a 9-point, ½ log serial dilution using a Tecan digital dispenser (D300e), and cells were incubated with compound for 2 hours in a humidified incubator at 37° C. A reference compound at a final concentration of 10 μM was used as a control for maximum inhibition. Each compound was tested in duplicates for each experiment. At the end of the incubation, 25 μL of 16% paraformaldehyde (Electron Microscopy, cat #15710) was slowly added to each well and the plate was incubated at room temperature (RT) for 30 minutes to fix cells. Cells were then permeabilized by incubating with 50 μL/well of wash buffer (lx PBS with 0.1% Triton X-100) 5×5 minutes, followed by 1 hour blocking with 30 μL/well of Odyssey blocking buffer (Li—COR, cat #927-40000), at RT. Anti-phosphor RB antibody (Cell signaling 8516S) was diluted 1:1000 in Odyssey blocking buffer and 20 μL was added to all wells and incubated overnight in 4° C. with gently rocking. The next day, cells were washed 5×5 min with 50 μL/well of wash buffer, followed with 1 hour incubation with secondary antibody and DRAQ5 diluted in Odyssey blocking buffer (1:500 dilution for secondary antibody and 1:2000 dilution for DRAQ5), 5×5 min washes, and one last wash with water. Plates were dried in 37° C. oven for 5 minutes and scanned using Li—COR Odyssey CLx imaging system to acquire intensities at 700 and 800 nm channels.

T1 sequence (P11802 whole entry): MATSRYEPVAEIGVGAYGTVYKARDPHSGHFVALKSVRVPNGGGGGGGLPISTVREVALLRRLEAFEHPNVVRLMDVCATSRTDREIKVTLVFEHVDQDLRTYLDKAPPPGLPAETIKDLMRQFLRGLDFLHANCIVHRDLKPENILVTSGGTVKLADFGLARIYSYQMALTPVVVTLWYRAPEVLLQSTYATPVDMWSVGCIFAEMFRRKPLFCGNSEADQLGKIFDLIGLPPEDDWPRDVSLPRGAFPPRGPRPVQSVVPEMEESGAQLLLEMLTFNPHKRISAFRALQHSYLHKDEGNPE
T1 sequence (P24385 whole entry partner): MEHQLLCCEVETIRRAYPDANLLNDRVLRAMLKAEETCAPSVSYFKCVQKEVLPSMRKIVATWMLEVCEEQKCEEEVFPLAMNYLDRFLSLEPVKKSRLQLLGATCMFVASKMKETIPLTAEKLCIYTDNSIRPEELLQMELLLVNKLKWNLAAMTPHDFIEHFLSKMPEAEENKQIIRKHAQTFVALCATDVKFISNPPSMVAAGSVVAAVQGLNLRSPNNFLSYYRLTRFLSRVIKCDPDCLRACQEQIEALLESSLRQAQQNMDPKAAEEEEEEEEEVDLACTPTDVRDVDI

SMILES	IC50 [1] [nM]	IC50 [2] [nM]	IC50 [3] [nM]
CC(C)C12CCOCCN1C(=O)c1cc(-c3nc(NC4CCN(S(C)(=O)=O)CC4)ncc3C(F)(F)F)sc12 (stereo not shown) [Example 10, 10a-Isopropyl-2-(2-((1-(methylsulfonyl)piperidin-4-yl)amino)-5-(trifluoro-methyl)pyrimidin-4-yl)-6,7,10,10a-tetrahydrothieno[2′,3′:3,4]pyrrolo[1,2-d][1,4]oxazepin-4(9H)-one]	≤ 100	≤ 100	100 to 500
CCC12CCCN1C(=O)c1cc(-c3nc(NC4CCN(S(C)(=O)=O)CC4)ncc3C(F)(F)F)sc12 (stereo not shown) [Example 14, 8a-Ethyl-2-[2-[(1-methylsulfonylpiperidin-4-yl)amino]-5-(trifluoromethyl)pyrimidin-4-yl]-7,8-dihydro-6H-thieno[2,3-a]pyrrolizin-4-one]	≤ 100	≤ 100	≤ 100
CCC12CCCN1C(=O)c1cc(-c3nc(NC4CCN(S(C)(=O)=O)CC4)ncc3F)sc12 (stereo not shown) [Example 15, 8a-Ethyl-2-[5-fluoro-2-[(1-methylsulfonylpiperidin-4-yl)amino]pyrimidin-4-yl]-7,8-dihydro-6H-thieno[2,3-a]pyrrolizin-4-one]	≤ 100	≤ 100	≤ 100
CCC12CCCN1C(=O)c1cc(-c3nc(NC4CCN(S(C)(=O)=O)CC4)ncc3C)sc12 (stereo not shown) [Example 16, 8a-Ethyl-2-[5-methyl-2-[(1-methylsulfonylpiperidin-4-yl)amino]pyrimidin-4-yl]-7,8-dihydro-6H-thieno[2,3-a]pyrrolizin-4-one]	≤ 100	≤ 100	≤ 100
CS(=O)(=O)N1CCC(Nc2ncc(C(F)(F)F)c(-c3cc4c(s3)C3(CCCO)CCCCN3C4=O)n2)CC1 (stereo not shown) [Example 4, 9a-(3-Hydroxypropyl)-2-(2-((1-(methylsulfonyl)piperidin-4-yl)amino)-5-(trifluoromethyl)pyrimidin-4-yl)-7,8,9,9a-tetrahydrothieno[2,3-a]indolizin-4(6H)-one]	≤ 100	≤ 100	–
CC(C)C12CCCCN1C(=O)c1cc(-c3nc(NC4CCN(S(C)(=O)=O)CC4)ncc3F)sc12 (stereo not shown) [Example 9, 2-(5-Fluoro-2-((1-(methylsulfonyl)piperidin-4-yl)amino)pyrimidin-4-yl)-9a-isopropyl-7,8,9,9a-tetrahydrothieno[2,3-a]indolizin-4(6H)-one]	–	≤ 100	–
CS(=O)(=O)N1CCC(Nc2ncc(C(F)(F)F)c(-c3cc4c(s3)C3(CCO)CCCCN3C4=O)n2)CC1 (stereo not shown) [Example 5, 9a-(2-Hydroxyethyl)-2-(2-((1-(methylsulfonyl)piperidin-4-yl)amino)-5-(trifluoromethyl)pyrimidin-4-yl)-7,8,9,9a-tetrahydrothieno[2,3-a]indolizin-4(6H)-one]	≤ 100	≤ 100	–

Continued, values first:

IC50 [1] [nM]	IC50 [2] [nM]	IC50 [3] [nM]	SMILES
≤ 100	≤ 100	≤ 100	CCC12CC(O)CN1C(=O)c1cc(-c3nc(NC4CCN(S(=O)(=O)c5cnn(C)c5)CC4)ncc3C(F)(F)F)sc12 (stereo not shown) [Example 36, 8a-Ethyl-7-hydroxy-2-(2-((1-((1-methyl-1H-pyrazol-4-yl)sulfonyl)piperidin-4-yl)amino)-5-(trifluoromethyl)pyrimidin-4-yl)-6,7,8,8a-tetrahydro-4H-thieno[2,3-a]pyrrolizin-4-one]
≤ 100	≤ 100	≤ 100	CCC12CCCN1C(=O)c1cc(-c3nc(NC4CCN(S(C)(=O)=O)CC4)ncc3Cl)sc12 (stereo not shown) [Example 27, 2-(5-Chloro-2-((1-(methylsulfonyl)piperidin-4-yl)amino)pyrimidin-4-yl)-8a-ethyl-6,7,8,8a-tetrahydro-4H-thieno[2,3-a]pyrrolizin-4-one]
≤ 100	≤ 100	≤ 100	CS(=O)(=O)N1CCC(Nc2ncc(C(F)(F)F)c(-c3cc4c(s3)C3(CCF)CCCN3C4=O)n2)CC1 (stereo not shown) [Example 19, 8a-(2-Fluoroethyl)-2-(2-((1-(methylsulfonyl)piperidin-4-yl)amino)-5-(trifluoromethyl)pyrimidin-4-yl)-6,7,8,8a-tetrahydro-4H-thieno[2,3-a]pyrrolizin-4-one]
≤ 100	≤ 100	≤ 100	CCNC1CN2C(=O)c3cc(-c4nc(NC5CCN(S(C)(=O)=O)CC5)ncc4C(F)(F)F)sc3C2(CC)C1 (stereo not shown) [Example 41, 8a-Ethyl-7-(ethylamino)-2-(2-((1-(methylsulfonyl)piperidin-4-yl)amino)-5-(trifluoromethyl)pyrimidin-4-yl)-6,7,8,8a-tetrahydro-4H-thieno[2,3-a]pyrrolizin-4-one]
≤ 100	≤ 100	100 to 500	CS(=O)(=O)N1CCC(Nc2ncc(C(F)(F)F)c(-c3cc4c(s3)C3CCCN3C4=O)n2)CC1 (stereo not shown) [Example 21, 2-(2-((1-(Methylsulfonyl)piperidin-4-yl)amino)-5-(trifluoromethyl)pyrimidin-4-yl)-6,7,8,8a-tetrahydro-4H-thieno[2,3-a]pyrrolizin-4-one]
≤ 100	≤ 100	100 to 500	CS(=O)(=O)N1CCC(Nc2ncc(C(F)(F)F)c(-c3cc4c(s3)C3(C5CC(F)C5)CCCN3C4=O)n2)CC1 (stereo not shown) [Example 26, 8a-(3-Fluorocyclobutyl)-2-(2-((1-(methylsulfonyl)piperidin-4-yl)amino)-5-(trifluoromethyl)pyrimidin-4-yl)-6,7,8,8a-tetrahydro-4H-thieno[2,3-a]pyrrolizin-4-one]
≤ 100	≤ 100	≤ 100	CCC12CC(O)CN1C(=O)c1cc(-c3nc(NC4CCN(S(C)(=O)=O)CC4)ncc3C(F)(F)F)sc12 (stereo not shown) [Example 33, 8a-Ethyl-7-hydroxy-2-(2-((1-(methylsulfonyl)piperidin-4-yl)amino)-5-(trifluoromethyl)pyrimidin-4-yl)-6,7,8,8a-tetrahydro-4H-thieno[2,3-a]pyrrolizin-4-one]
100 to 500	100 to 500	–	CCC12CCCN1C(=O)c1cc(-c3ccnc(NC4CCN(S(C)(=O)=O)CC4)n3)sc12 (stereo not shown) [Example 28, 8a-Ethyl-2-(2-((1-(methylsulfonyl)piperidin-4-yl)amino)pyrimidin-4-yl)-6,7,8,8a-tetrahydro-4H-thieno[2,3-a]pyrrolizin-4-one]

Reference: US11939340B2, “CDK inhibitors and their use as pharmaceuticals” (Prelude Therapeutics Incorporated, priority 2022, dated 2024)
